The results in this text go back to patent publication EP2249825B1, “TREATMENT METHODS AND COMPOSITIONS FOR LUNG CANCER, ADENOCARCINOMA, AND OTHER MEDICAL CONDITIONS” (BIONUMERIK PHARMACEUTICALS, INC., priority 2008, dated 2009).

SMILES strings stand for the structures.

Series [1] relates to patients with advanced non-small cell lung carcinoma (NSCLC). Briefly: Japan Phase III Clinical Trial: chemotherapy-induced peripheral neuropathy (Peripheral Neuropathy Questionnaire, PNQ). It is filed as in vivo. The text has this: As utilized herein, the term "clinical trial" or "trial", refers to the Japan Phase III Clinical Trial disclosed in the present invention which was utilized to show the ability of Tavocept™ (also referred to in the literature as disodium 2,2'-dithio-bis-ethane sulfonate, dimesna, or BNP7787) to prevent and/or reduce peripheral neuropathy induced by paclitaxel/cisplatin combination therapy. […] The effects of Tavocept™ on the Quality of Life (QOL) of patients under anticancer treatment was also evaluated using the QOL questionnaire, EORTC QLQ-C30. Whether or not Tavocept™ would affect the efficacy of paclitaxel/cisplatin combination therapy was also evaluated based on the response rate, aggravation-free survival period, and total survival period. […]
The Japan Phase III Clinical Trial was conducted as a double-blind study because peripheral neuropathy is diagnosed based on subjective symptoms evaluated through clinical interviews, lab tests, and the like. […] Because the severity of peripheral neuropathy is evaluated based on patients' reports (i.e., subjective symptoms), the Peripheral Neuropathy Questionnaire (PNQ^©) was used in primary evaluation. […]

In series [2] the test system is non-small cell lung carcinoma (NSCLC). Kind of series: Japan Phase III Clinical Trial: tumor response rate to chemotherapy. The series is classed as in vivo, patients. As to conditions: Tavocept arm with paclitaxel and cisplatin, Fig. 4. The text has this: (§1) As utilized herein, the term "clinical trial" or "trial", refers to the Japan Phase III Clinical Trial disclosed in the present invention which was utilized to show the ability of Tavocept™ (also referred to in the literature as disodium 2,2'-dithio-bis-ethane sulfonate, dimesna, or BNP7787) to prevent and/or reduce peripheral neuropathy induced by paclitaxel/cisplatin combination therapy. The incidence and severity of adverse reactions, time to their onset, etc. and the like, were compared between patients treated with Tavocept™ and those given a placebo using Quality of Life (QOL) questionnaires (i.e., Peripheral Neuropathy Questionnaire (PNQ^©) and CIPN-20)) and the National Cancer Institute - Common Toxicity Criteria (NCI-CTC). The effects of Tavocept™ on the Quality of Life (QOL) of patients under anticancer treatment was also evaluated using the QOL questionnaire, EORTC QLQ-C30. Whether or not Tavocept™ would affect the efficacy of paclitaxel/cisplatin combination therapy was also evaluated based on the response rate, aggravation-free survival period, and total survival period. […]

Series [3] concerns non-small cell lung carcinoma (NSCLC) patients. Briefly: Japan Phase III Clinical Trial: decrease in hemoglobin, erythrocyte and hematocrit levels. The series is classed as in vivo. Particulars: Tavocept arm with paclitaxel and cisplatin, Fig. 3. The text has this: (§2) As utilized herein, the term "clinical trial" or "trial", refers to the Japan Phase III Clinical Trial disclosed in the present invention which was utilized to show the ability of Tavocept™ (also referred to in the literature as disodium 2,2'-dithio-bis-ethane sulfonate, dimesna, or BNP7787) to prevent and/or reduce peripheral neuropathy induced by paclitaxel/cisplatin combination therapy. The incidence and severity of adverse reactions, time to their onset, etc. and the like, were compared between patients treated with Tavocept™ and those given a placebo using Quality of Life (QOL) questionnaires (i.e., Peripheral Neuropathy Questionnaire (PNQ^©) and CIPN-20)) and the National Cancer Institute - Common Toxicity Criteria (NCI-CTC). The effects of Tavocept™ on the Quality of Life (QOL) of patients under anticancer treatment was also evaluated using the QOL questionnaire, EORTC QLQ-C30. Whether or not Tavocept™ would affect the efficacy of paclitaxel/cisplatin combination therapy was also evaluated based on the response rate, aggravation-free survival period, and total survival period. In order to make all these evaluations, Tavocept™ (approximately14-22 g/m^2, most preferably approximately 18.4 g/m^2) or placebo (0.9% NaCl) was administered to non-small cell lung carcinoma (NSCLC) patients, including adenocarcinoma patients, under chemotherapy with paclitaxel (approximately 160-190 mg/m^2, most preferably approximately 175 mg/m^2) and cisplatin (approximately 60-100 mg/m^2, most preferably approximately 80 mg/m^2), every 3 weeks (and repeated for a minimum of 2 cycles).
(§3) Data was recently unblinded from a multicenter double-blind randomized placebo-controlled Phase III clinical trial of the Formula (I) compound Tavocept™ (also known as BNP7787, disodium 2,2'-dithio-bis-ethane sulfonate, and dimesna) conducted in Japan (hereinafter the "Japan Phase III Clinical Trial") and involving patients with advanced non-small cell lung carcinoma (NSCLC) who received the chemotherapeutic drugs paclitaxel and cisplatin. […]

A further series has as its system adenocarcinoma. Briefly: Japan Phase III Clinical Trial: patient survival, adenocarcinoma. It is filed as in vivo, patients.
Description: as §1

Series [4] deals with non-small cell lung carcinoma (NSCLC) patients. Kind of series: Japan Phase III Clinical Trial: other chemotherapy-related symptoms and toxicities. It is filed as in vivo.
Description: as §2
Data was recently unblinded from a multicenter double-blind randomized placebo-controlled Phase III clinical trial of the Formula (I) compound Tavocept™ (also known as BNP7787, disodium 2,2'-dithio-bis-ethane sulfonate, and dimesna) conducted in Japan (hereinafter the "Japan Phase III Clinical Trial") and involving patients with advanced non-small cell lung carcinoma (NSCLC) who received the chemotherapeutic drugs paclitaxel and cisplatin.
Patients admitted into the trial included those patients without previous treatment (excluding surgical treatment, administration of Picibanil into the serous membrane, irradiation of 30% or less hematopoietic bone, or oral chemotherapeutic agents within 3 months of entry in the trial).
The Japan Phase III Clinical Trial was conducted as a double-blind study because peripheral neuropathy is diagnosed based on subjective symptoms evaluated through clinical interviews, lab tests, and the like. Accordingly, evaluations by both physicians and patients are highly important. […] A placebo was used as control since there is no established therapy or drug for preventing peripheral neuropathy. Because the severity of peripheral neuropathy is evaluated based on patients' reports (i.e., subjective symptoms), the Peripheral Neuropathy Questionnaire (PNQ^©) was used in primary evaluation. CIPN-20 and NCI-CTC were used in secondary evaluation. The incidence and severity of adverse reactions, time to their onset, etc. and the like, were compared between patients treated with Tavocept™ and those given a placebo using the aforementioned methods.
In order to conduct the present trial, Tavocept™ (approximately14-22 g/m^2, most preferably approximately 18.4 g/m^2) or placebo (0.9% NaCl) was administered to non-small cell lung carcinoma (NSCLC) patients receiving chemotherapy with paclitaxel (approximately 160-190 mg/m^2, most preferably approximately 175 mg/m^2) and cisplatin (approximately 60-100, most preferably approximately 80 mg/m^2), every 3 weeks (and repeated for a minimum of 2 cycles).

In series [5] the test system is non-small cell lung carcinoma (NSCLC). Kind of series: Japan Phase III Clinical Trial: patient survival, NSCLC. It is filed as in vivo, patients.
Description: as §2, §3

Setting [6] is: clinical trial population, summary statement.

`O=S(=O)([O-])CCSSCCS(=O)(=O)[O-].[Na+].[Na+]` [Tavocept™, disodium 2,2'-dithio-bis-ethane sulfonate]: the chemotherapy-induced peripheral neuropathy result in series [1] (Tavocept and chemotherapy vs chemotherapy and placebo, summary statement) is “medically-important reductions”. Also, in series [1] (paclitaxel/Tavocept/cisplatin regimen vs paclitaxel/saline placebo/cisplatin regimen, PNQ, Fig. 1), the “reduction in severe (Grade D or E) peripheral neuropathy” value was ~50%. Further, the “response rate as measured by the IRC” value in series [2] (Independent Radiological Committee, placebo arm 28.6%) is listed as 33.3%. The “Response Rate, as measured by physicians” value in series [2] (placebo arm 33.0%) came to 41.9%. In series [3] (placebo arm 5), the “patients with Grade 3 (severe) decrease in hematocrit levels” value was found to be 1 patients and the “patients with Grade 3 (severe) decrease in red blood cell” value is 1 patients. Moreover, the “patients with Grade 3 (severe) decrease in hemoglobin” value in series [3] (placebo arm 8) worked out at 2 patients. Moreover, in the series on adenocarcinoma (adenocarcinoma patients, paclitaxel/Tavocept/cisplatin vs paclitaxel/saline placebo/cisplatin, Fig. 7), the “increase in median survival time” value is “up to 138 days”. Also, the survival time result with adenocarcinoma (patients with adenocarcinoma receiving Tavocept and chemotherapy, summary statement) is listed as “medically-important increase”. In series [4] (setting [6]), the chemotherapy-induced kidney damage entry is on record as “medically-important reductions” and the chemotherapy-induced vomiting/emesis result is on record as “medically-important reductions”. Moreover, the anorexia entry in series [4] (p = 0.0029, paclitaxel/Tavocept/cisplatin vs placebo regimen) is “reductions”. Moreover, the fatigue entry in series [4] (p = 0.0163, paclitaxel/Tavocept/cisplatin vs placebo regimen) was “reductions”. In addition, in series [4] (p = 0.0240, paclitaxel/Tavocept/cisplatin vs placebo regimen), the nausea/vomiting result is listed as “reductions”. In series [4] (p = 0.0859, paclitaxel/Tavocept/cisplatin vs placebo regimen), the diarrhea entry was “reductions”. The insomnia result in series [4] (p = 0.1108, paclitaxel/Tavocept/cisplatin vs placebo regimen) is recorded as “reductions”. The constipation result in series [4] (p = 0.1114, paclitaxel/Tavocept/cisplatin vs placebo regimen) is “reductions”. Also, the “increase in median survival time” value in series [5] (NSCLC patients, paclitaxel/Tavocept/cisplatin vs paclitaxel/saline placebo/cisplatin, Fig. 5) was “up to 40 days”. In addition, the survival period entry in series [5] (female NSCLC patients, paclitaxel/Tavocept/cisplatin vs paclitaxel/saline placebo/cisplatin, Fig. 6) is on record as “longer survival period”. In series [5] (patients with advanced NSCLC receiving Tavocept and chemotherapy, summary statement), the survival times entry was “increased survival times”.
